Measurements reported in patent US12187723B2 (BRISTOL-MYERS SQUIBB COMPANY, priority 2019, dated 2025).

Each molecule was assayed against T1, human TLR8 (Homo sapiens, UniProt Q9NR97) (assay: TLR8 inhibition reporter assay (HEK-Blue SEAP)). Conditions: HEK-Blue cells overexpressing human TLR8, R848 15.9 μM, 22 hour incubation.
T1 construct: host or cells: HEK-Blue cells
T1 sequence (Q9NR97 27-1041): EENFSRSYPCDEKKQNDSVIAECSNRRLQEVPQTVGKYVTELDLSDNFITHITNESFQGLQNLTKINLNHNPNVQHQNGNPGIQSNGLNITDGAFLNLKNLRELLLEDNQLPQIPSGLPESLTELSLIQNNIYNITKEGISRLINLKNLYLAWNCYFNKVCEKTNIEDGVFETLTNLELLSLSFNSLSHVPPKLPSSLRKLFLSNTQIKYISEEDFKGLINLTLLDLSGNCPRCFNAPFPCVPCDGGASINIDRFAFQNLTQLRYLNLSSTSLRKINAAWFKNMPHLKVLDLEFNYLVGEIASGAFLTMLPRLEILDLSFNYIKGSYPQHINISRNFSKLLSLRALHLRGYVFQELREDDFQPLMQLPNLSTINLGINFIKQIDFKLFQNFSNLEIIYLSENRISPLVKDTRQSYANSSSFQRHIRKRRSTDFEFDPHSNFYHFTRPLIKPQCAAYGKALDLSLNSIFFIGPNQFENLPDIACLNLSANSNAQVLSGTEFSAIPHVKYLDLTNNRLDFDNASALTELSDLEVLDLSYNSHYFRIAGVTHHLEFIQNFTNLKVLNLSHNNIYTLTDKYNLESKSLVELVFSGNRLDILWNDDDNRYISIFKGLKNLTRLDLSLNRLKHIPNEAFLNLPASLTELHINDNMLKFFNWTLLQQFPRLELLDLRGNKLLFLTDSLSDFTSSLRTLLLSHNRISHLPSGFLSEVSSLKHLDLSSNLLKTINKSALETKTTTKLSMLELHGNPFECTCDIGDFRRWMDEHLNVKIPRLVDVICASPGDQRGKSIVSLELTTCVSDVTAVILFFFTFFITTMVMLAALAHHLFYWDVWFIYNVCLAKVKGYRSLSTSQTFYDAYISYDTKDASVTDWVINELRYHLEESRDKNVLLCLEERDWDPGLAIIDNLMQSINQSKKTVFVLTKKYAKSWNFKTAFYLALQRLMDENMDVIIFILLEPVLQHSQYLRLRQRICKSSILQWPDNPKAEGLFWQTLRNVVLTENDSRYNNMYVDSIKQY
Type: cell-based
How it was run: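 HEK-Blue cells overexpressing human TLR7, TLR8 or TLR9 carry a SEAP reporter driven by NF-κB/AP-1 sites. Compounds (0.05 nM–50 μM) were preincubated 30 min at room temperature, then cells were stimulated with gardiquimod 7.5 μM (TLR7), R848 15.9 μM (TLR8) or ODN2006 5 nM (TLR9) for 22 h at 37 °C.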

| Compound | IC50 |
| --- | --- |
| COc1cc(-c2cc3[nH]c(=O)n([C@@H]4CCCN(CC(C)C)C4)c3cc2C)cn2ncnc12 [Example 56, (R)-1-(1-isobutylpiperidin-3-yl)-5-(8-methoxy-[1,2,4]triazolo[1,5-a]pyridin-6-yl)-6-methyl-1,3-dihydro-2H-benzo[d]imidazol-2-one] | 0.0112 µM |
| COc1cc(-c2cc3[nH]c(=O)n([C@@H]4CCCN(CC5CCOCC5)C4)c3cc2C)cn2ncnc12 [Example 57, (R)-5-(8-methoxy-[1,2,4]triazolo[1,5-a]pyridin-6-yl)-6-methyl-1-(1-((tetrahydro-2H-pyran-4-yl)methyl)piperidin-3-yl)-1,3-dihydro-2H-benzo[d]imidazol-2-one] | 0.00887 µM |
| CCC(CC)N1CCC[C@@H](n2c(=O)[nH]c3cc(-c4cc(OC)c5ncnn5c4)c(C)cc32)C1 [Example 67, (R)-5-(8-methoxy-[1,2,4]triazolo[1,5-a]pyridin-6-yl)-6-methyl-1-(1-(pentan-3-yl)piperidin-3-yl)-1,3-dihydro-2H-benzo[d]imidazol-2-one] | 0.052 µM |
| COc1cc(-c2cc3[nH]c(=O)n([C@@H]4CCCN(CCC(F)(F)F)C4)c3cc2C)cn2ncnc12 [Example 68, (R)-5-(8-methoxy-[1,2,4]triazolo[1,5-a]pyridin-6-yl)-6-methyl-1-(1-(3,3,3-trifluoropropyl)piperidin-3-yl)-1,3-dihydro-2H-benzo[d]imidazol-2-one] | 0.121 µM |
| COc1cc(-c2cc3[nH]c(=O)n([C@@H]4CCCN(C5CCC5)C4)c3cc2C)cn2ncnc12 [Example 69, (R)-1-(1-cyclobutylpiperidin-3-yl)-5-(8-methoxy-[1,2,4]triazolo[1,5-a]pyridin-6-yl)-6-methyl-1,3-dihydro-2H-benzo[d]imidazol-2-one] | 0.11 µM |
| COc1cc(-c2cc3[nH]c(=O)n([C@@H]4CCCN(C5CCOCC5)C4)c3cc2C)cn2ncnc12 [Example 70, (R)-5-(8-methoxy-[1,2,4]triazolo[1,5-a]pyridin-6-yl)-6-methyl-1-(1-(tetrahydro-2H-pyran-4-yl)piperidin-3-yl)-1,3-dihydro-2H-benzo[d]imidazol-2-one] | 0.117 µM |
| COc1cc(-c2cc3[nH]c(=O)n([C@@H]4CCCN(CC(C)(C)C)C4)c3cc2C)cn2ncnc12 [Example 71, (R)-5-(8-methoxy-[1,2,4]triazolo[1,5-a]pyridin-6-yl)-6-methyl-1-(1-neopentylpiperidin-3-yl)-1,3-dihydro-2H-benzo[d]imidazol-2-one] | 0.147 µM |
| COc1cc(-c2cc3[nH]c(=O)n([C@@H]4CCCN(C5COC5)C4)c3cc2C)cn2ncnc12 [Example 72, (R)-5-(8-methoxy-[1,2,4]triazolo[1,5-a]pyridin-6-yl)-6-methyl-1-(1-(oxetan-3-yl)piperidin-3-yl)-1,3-dihydro-2H-benzo[d]imidazol-2-one] | 0.249 µM |
| CCC(CC)CN1CCC[C@@H](n2c(=O)[nH]c3cc(-c4cc(OC)c5ncnn5c4)c(C)cc32)C1 [Example 73, (R)-1-(1-(2-ethylbutyl)piperidin-3-yl)-5-(8-methoxy-[1,2,4]triazolo[1,5-a]pyridin-6-yl)-6-methyl-1,3-dihydro-2H-benzo[d]imidazol-2-one] | 0.0736 µM |
| COc1cc(-c2ccc3c(c2)[nH]c(=O)n3C2CCN(C)CC2)cn2ncnc12 [Example 74, 5-(8-methoxy-[1,2,4]triazolo[1,5-a]pyridin-6-yl)-1-(1-methylpiperidin-4-yl)-1,3-dihydro-2H-benzo[d]imidazol-2-one] | > 3.13 µM |
| CCC(CC)CN1CCC(n2c(=O)[nH]c3cc(-c4cc(OC)c5ncnn5c4)ccc32)CC1 [Example 75, 1-(1-(2-ethylbutyl)piperidin-4-yl)-5-(8-methoxy-[1,2,4]triazolo[1,5-a]pyridin-6-yl)-1,3-dihydro-2H-benzo[d]imidazol-2-one] | 1.49 µM |
| CCCN1CCC(n2c(=O)[nH]c3cc(-c4cc(OC)c5ncnn5c4)ccc32)CC1 [Example 76, 5-(8-methoxy-[1,2,4]triazolo[1,5-a]pyridin-6-yl)-1-(1-propylpiperidin-4-yl)-1,3-dihydro-2H-benzo[d]imidazol-2-one] | 0.251 µM |
| COc1cc(-c2ccc3c(c2)[nH]c(=O)n3C2CCN(C(C)C)CC2)cn2ncnc12 [Example 77, 1-(1-isopropylpiperidin-4-yl)-5-(8-methoxy-[1,2,4]triazolo[1,5-a]pyridin-6-yl)-1,3-dihydro-2H-benzo[d]imidazol-2-one] | > 3.13 µM |
| COc1cc(-c2ccc3c(c2)[nH]c(=O)n3C2CCN(CC3CCOCC3)CC2)cn2ncnc12 [Example 78, 5-(8-methoxy-[1,2,4]triazolo[1,5-a]pyridin-6-yl)-1-(1-((tetrahydro-2H-pyran-4-yl)methyl)piperidin-4-yl)-1,3-dihydro-2H-benzo[d]imidazol-2-one] | 1.38 µM |

Second part, the molecule after the results:

| IC50 | Compound |
| --- | --- |
| 0.0195 µM | COc1cc(-c2cc3[nH]c(=O)n([C@@H]4CCCN(CC5CC5)C4)c3cc2C)cn2ncnc12 [Example 55, (R)-1-(1-(cyclopropylmethyl)piperidin-3-yl)-5-(8-methoxy-[1,2,4]triazolo[1,5-a]pyridin-6-yl)-6-methyl-1,3-dihydro-2H-benzo[d]imidazol-2-one] |
| 0.0052 µM | COc1cc(-c2cc3[nH]c(=O)n([C@H]4CC[C@@H](NC5CCC5)CC4)c3cc2C)cn2ncnc12 [Example 58, 1-((1s,4s)-4-(cyclobutylamino)cyclohexyl)-5-(8-methoxy-[1,2,4]triazolo[1,5-a]pyridin-6-yl)-6-methyl-1,3-dihydro-2H-benzo[d]imidazol-2-one] |
| 0.0188 µM | COc1cc(-c2cc3[nH]c(=O)n([C@H]4CC[C@@H](NC5COC5)CC4)c3cc2C)cn2ncnc12 [Example 59, 5-(8-methoxy-[1,2,4]triazolo[1,5-a]pyridin-6-yl)-6-methyl-1-((1s,4s)-4-(oxetan-3-ylamino)cyclohexyl)-1,3-dihydro-2H-benzo[d]imidazol-2-one] |
| 0.00574 µM | COc1cc(-c2cc3[nH]c(=O)n([C@H]4CC[C@@H](NCC5CC5)CC4)c3cc2C)cn2ncnc12 [Example 60, 1-((1s,4s)-4-((cyclopropylmethyl)amino)cyclohexyl)-5-(8-methoxy-[1,2,4]triazolo[1,5-a]pyridin-6-yl)-6-methyl-1,3-dihydro-2H-benzo[d]imidazol-2-one] |
| 0.00235 µM | COc1cc(-c2cc3[nH]c(=O)n([C@H]4CC[C@@H](NCC(C)C)CC4)c3cc2C)cn2ncnc12 [Example 61, 1-((1s,4s)-4-(isobutylamino)cyclohexyl)-5-(8-methoxy-[1,2,4]triazolo[1,5-a]pyridin-6-yl)-6-methyl-1,3-dihydro-2H-benzo[d]imidazol-2-one] |
| 0.00185 µM | COc1cc(-c2cc3[nH]c(=O)n([C@H]4CC[C@@H](NC5CCCCC5)CC4)c3cc2C)cn2ncnc12 [Example 62, 1-((1s,4s)-4-(cyclohexylamino)cyclohexyl)-5-(8-methoxy-[1,2,4]triazolo[1,5-a]pyridin-6-yl)-6-methyl-1,3-dihydro-2H-benzo[d]imidazol-2-one] |
| 0.0215 µM | CCN[C@H]1CC[C@@H](n2c(=O)[nH]c3cc(-c4cc(OC)c5ncnn5c4)c(C)cc32)CC1 [Example 63, 1-((1s,4s)-4-(ethylamino)cyclohexyl)-5-(8-methoxy-[1,2,4]triazolo[1,5-a]pyridin-6-yl)-6-methyl-1,3-dihydro-2H-benzo[d]imidazol-2-one] |
| 0.00176 µM | CCCN[C@H]1CC[C@@H](n2c(=O)[nH]c3cc(-c4cc(OC)c5ncnn5c4)c(C)cc32)CC1 [Example 64, 5-(8-methoxy-[1,2,4]triazolo[1,5-a]pyridin-6-yl)-6-methyl-1-((1s,4s)-4-(propylamino)cyclohexyl)-1,3-dihydro-2H-benzo[d]imidazol-2-one] |
| 0.0017 µM | COc1cc(-c2cc3[nH]c(=O)n([C@H]4CC[C@@H](NC5CCCC5)CC4)c3cc2C)cn2ncnc12 [Example 65, 1-((1s,4s)-4-(cyclopentylamino)cyclohexyl)-5-(8-methoxy-[1,2,4]triazolo[1,5-a]pyridin-6-yl)-6-methyl-1,3-dihydro-2H-benzo[d]imidazol-2-one] |
| 0.00066 µM | COc1cc(-c2cc3[nH]c(=O)n([C@H]4CC[C@@H](NCC5CCCCC5)CC4)c3cc2C)cn2ncnc12 [Example 66, 1-((1s,4s)-4-((cyclohexylmethyl)amino)cyclohexyl)-5-(8-methoxy-[1,2,4]triazolo[1,5-a]pyridin-6-yl)-6-methyl-1,3-dihydro-2H-benzo[d]imidazol-2-one] |
